Measurements taken from US7569225B2, “Immunogenic lipopeptides comprising T-helper and B-cell epitopes” (The Council of The Queensland Institute of Medical Research, priority 2002, dated 2009).
Where “and” joins values, the source holds several entries; their conditions need not be identical. Identical values can stand only once. Entries after “also recorded” stand apart in the source; their conditions may differ. Like-named read-outs stand apart in the source and are kept apart here. Where no end group is shown, it is not given here. Pam3Cys = lipoamino acid of Formula (III) conjugated to the N-terminus; Pam2Cys = lipid of Formula (II)

What was measured:
[1] = Solubility of peptides and lipopeptides in saline (visual inspection); assay type: physicochemical; conditions: for solubility / appearance of solution: visual inspection
Description: FIG. 2 is a photographic representation showing the solubilities of lipopeptides designated [Th]-Lys(Pam2Cys-Ser-Ser)-[B] (left) and Pam2Cys-Ser-Ser-[Th]-[B] (right) in FIG. 1, wherein the polypeptide moieties have the amino acid sequences set forth in SEQ ID NO: 7 and SEQ ID NO: 5, respectively. Both solutions are approximately 1 mg/ml lipopeptide in saline solution.
Enhanced solubility was most evident in those cases where lipid was attached between the two epitopes at the approximate centre of the molecule. The lipopeptides designated [Th]-Lys(Pam2Cys)-[B] and [Th]-Lys(Pam3Cys)-[B] were soluble in saline at concentrations of at least 8 mg/ml (no higher concentrations were examined), whereas constructs in which lipid was attached to the N-terminus of the sequence formed opalescent solutions at concentrations as low as 0.25 mg/ml.
We considered that the insoluble nature of this construct would prevent it from being considered as a viable proposition for manufacture as a vaccine.

female mice = assay type: in vivo, BALB/c mice; conditions: for Incidence of pregnancy 13 weeks after 2nd Dose / Incidence of pregnancy 2 weeks after 2nd Dose: 20 nmoles subcutaneously; for Incidence of pregnancy 13 weeks after 2nd Dose: animals per group of five; for Incidence of pregnancy 2 weeks after 2nd Dose: animals that dropped litters per group of five; for Pregnancy status (No. of animals per group that dropped litters): fertility experiment initiated two weeks after second dose
D1 cells = assay type: cell-based, BALB/c mouse
J14 [2] = conditions: Quackenbush mice, 60 μg intranasally, three doses, eight days after final dose; versus control groups
Description: Female outbred Quackenbush mice 4-6 weeks old (15/group) were inoculated intranasally with 60 μg of each peptide-based vaccine in a total volume of 30 μl PBS. Mice received three doses of vaccine at 21-day intervals. Eight days following the final dose saliva was collected from individual mice and the average J14-specific salivary IgA antibody titres were determined by standard ELISA.
Female outbred Quackenbush mice 4-6 weeks old (15/group) were inoculated intranasally with 60 μg of peptide-based vaccine in a total volume of 30 μl PBS. Mice received three doses of vaccine at 21-day intervals. […] Eight days following the final dose saliva was collected from individual mice and the average J14-specific salivary IgA antibody titres were determined by standard ELISA.

J14 [3] = conditions: Quackenbush mice, 60 μg intranasally, three doses, 6 days after last dose
Description: Female outbred Quackenbush mice 4-6 weeks old (15/group) were inoculated intranasally with 60 μg of peptide-based vaccine in a total volume of 30 μl PBS. Mice received three doses of vaccine at 21-day intervals. Fecal IgA was determined 6 days following the last dose of antigen.

M1 GAS strain = experiment: Survival of inoculated mice after intranasal challenge with GAS; assay type: in vivo, Group A Streptococcus; conditions: Quackenbush mice, challenge two weeks after last dose
Description: Two weeks after the last dose of antigen, mice were challenged intranasally with M1 GAS strain and survival determined at various time points afterwards.
Female outbred Quackenbush mice 4-6 weeks old (15/group) were inoculated intranasally with 60 μg of peptide-based vaccine in a total volume of 30 μl PBS. Mice received three doses of vaccine at 21-day intervals. […] Two weeks after the last dose of antigen, mice were challenged intranasally with M1 GAS strain and survival determined at various time points afterwards.

J14 [4] = conditions: Quackenbush mice, 60 μg intranasally, three doses at 21-day intervals, seven days after final dose; versus control groups
Description: The lipoamino acid moiety Pam2Cys-Ser-Ser was added to an internal lysine positioned between the T-helper epitope and the B-cell epitope in all lipopeptides tested. In the lipopeptide [Th]-Lys(Pam2Cys-Ser-Ser)-[J14], this is the only lipid moiety, whereas in the lipopeptide Pam2Cys-Ser-Ser-[Th]-Lys(Pam2Cys-Ser-Ser)-[J14], an additional lipoamino acid moiety Pam2Cys-Ser-Ser was added to the N-terminal amino group of the T-helper epitope. […] Seven days following the final dose mice were bled from the tail vein and J14-specific serum IgG was determined.
ELISA assays were carried out on serum samples as described essentially by Ghosh et al., Int Immun. […] The titres of antibody are expressed as the reciprocal of the highest dilution of serum to achieve an OD of 0.2, which represents approximately 5 times the background binding in the absence of antibody. The isotype of antibodies specific for LHRH or J14 was determined using rabbit antisera directed against mouse IgM, IgG1, IgG2a, IgG2b, IgG3 or IgA (ICN Pharmaceuticals Inc., Costa Mesa, Calif.) as previously described by Ghosh et al., Int Immun.
Female outbred Quackenbush mice 4-6 weeks old (15/group) were inoculated intranasally with 60 μg of peptide-based vaccine in a total volume of 30 μl PBS. […] Seven days following the final dose mice were bled from the tail vein and J14-specific serum IgG was determined.

## Pam3Cys-Ser-Ser-[Th]—[B]: lipoamino acid of Formula (III) conjugated to the N-terminus of peptide [Th]-[B] (SEQ ID NO: 5) (Pam3Cys-SSGALNNRFQIKGVELKSEHWSYGLRPG)
[1]
  solubility / appearance of solution: so insoluble that it could not be purified by RP-HPLC
Female mice
  Incidence of pregnancy 13 weeks after 2nd Dose: 0/5
  Incidence of pregnancy 2 weeks after 2nd Dose: 2/5
Female mice; listed as Pam3Cys-Ser-Ser-[Th]-[B]
  Incidence of pregnancy 2 weeks after 2nd Dose: two animals

## CCCCCCCCCCCCCCCC(=O)OCC(CSC[C@H](N)C(=O)N[C@@H](CO)C(=O)N[C@@H](CO)C(=O)NCCCC[C@H](NC(=O)[C@H](CO)NC(=O)[C@H](CCCCN)NC(=O)[C@H](CC(C)C)NC(=O)[C@H](CCC(=O)O)NC(=O)[C@@H](NC(=O)CNC(=O)[C@H](CCCCN)NC(=O)[C@@H](NC(=O)[C@H](CCC(N)=O)NC(=O)[C@H](Cc1ccccc1)NC(=O)[C@H](CCCNC(=N)N)NC(=O)[C@H](CC(N)=O)NC(=O)[C@H](CC(N)=O)NC(=O)[C@H](CC(C)C)NC(=O)[C@H](C)NC(=O)CN)[C@@H](C)CC)C(C)C)C(=O)N[C@@H](CCC(=O)O)C(=O)N[C@@H](Cc1c[nH]cn1)C(=O)N[C@@H](Cc1c[nH]c2ccccc12)C(=O)N[C@@H](CO)C(=O)N[C@@H](Cc1ccc(O)cc1)C(=O)NCC(=O)N[C@@H](CC(C)C)C(=O)N[C@@H](CCCNC(=N)N)C(=O)N1CCC[C@H]1C(=O)NCC(=O)O)OC(=O)CCCCCCCCCCCCCCC (stereo partly drawn) [[Th]-Lys(Pam2Cys-Ser-Ser)-[B]]
[1]
  solubility / appearance of solution: clear; also recorded: higher solubility

## Pam2Cys-[Th]—[B]: lipid of Formula (II) conjugated to the N-terminus of peptide [Th]-[B] (SEQ ID NO: 5) (Pam2Cys-GALNNRFQIKGVELKSEHWSYGLRPG)
Female mice
  Incidence of pregnancy 13 weeks after 2nd Dose: 3/5
  Incidence of pregnancy 2 weeks after 2nd Dose: 2/5
Female mice; listed as Pam2Cys-[Th]-[B]
  Incidence of pregnancy 2 weeks after 2nd Dose: two animals
D1 cells
  ability to cause maturation of DC / up-regulate MHC class II expression (FIG. 5): least effective

## GALNNRFQIKGVELKSEHWSYGLRPG [[Th]—[B]]
Female mice; 1 nmole, subcutaneous
  Pregnancy status (No. of animals per group that dropped litters): 3/5
Female mice; 10 nmole, subcutaneous
  Pregnancy status (No. of animals per group that dropped litters): 1/5
Female mice
  Incidence of pregnancy 13 weeks after 2nd Dose: 0/5
  Incidence of pregnancy 2 weeks after 2nd Dose: 0/5
Female mice; listed as [Th]-[B]
  Incidence of pregnancy 13 weeks after 2nd Dose: still infertile
  Incidence of pregnancy 2 weeks after 2nd Dose: None of the mice
Female mice; subcutaneous, initiated two weeks after second dose
  Pregnancy No. animals per group that dropped litters: 0/5

## CCCCCCCCCCCCCCCC(=O)OCC(CSC[C@H](N)C(=O)NCCCC[C@H](NC(=O)[C@H](CO)NC(=O)[C@H](CCCCN)NC(=O)[C@H](CC(C)C)NC(=O)[C@H](CCC(=O)O)NC(=O)[C@@H](NC(=O)CNC(=O)[C@H](CCCCN)NC(=O)[C@@H](NC(=O)[C@H](CCC(N)=O)NC(=O)[C@H](Cc1ccccc1)NC(=O)[C@H](CCCNC(=N)N)NC(=O)[C@H](CC(N)=O)NC(=O)[C@H](CC(N)=O)NC(=O)[C@H](CC(C)C)NC(=O)[C@H](C)NC(=O)CN)[C@@H](C)CC)C(C)C)C(=O)N[C@@H](CCC(=O)O)C(=O)N[C@@H](Cc1c[nH]cn1)C(=O)N[C@@H](Cc1c[nH]c2ccccc12)C(=O)N[C@@H](CO)C(=O)N[C@@H](Cc1ccc(O)cc1)C(=O)NCC(=O)N[C@@H](CC(C)C)C(=O)N[C@@H](CCCNC(=N)N)C(=O)N1CCC[C@H]1C(=O)NCC(=O)O)OC(=O)CCCCCCCCCCCCCCC (some centres unmarked) [[Th]-Lys(Pam2Cys)-[B]]
[1]; no higher concentrations were examined, read-out: soluble in saline at concentrations of at least
  solubility: ≥ 8000 µg/mL

## [Th]-Lys(Pam2Cys-Ser-Ser)-[J14]: P25-Lys-J14 (SEQ ID NO: 106) with Pam2Cys-Ser-Ser on the internal lysine between the epitopes (KLIPNASLIENCTKAELKKQAEDKVKASREAKKQVEKALEQLEDKVK; not fully specified (residue 18); also: Pam2Cys-Ser-Ser on internal lysine between the epitopes (K18 or K19))
J14 [2]
  J14-specific salivary IgA titres (FIG. 14): far superior
J14 [3]
  faecal IgA titres (FIG. 15): significant (P<0.05) faecal IgA titres
M1 GAS strain
  survival following intranasal challenge with GAS (FIG. 16): best survival
J14 [4]
  J14-specific serum IgG titres (FIG. 12): significantly higher (P<0.05) serum IgG titres

## [Th]-[J14]: non-lipidated peptide of T-helper epitope P25 (SEQ ID NO: 24) and J14 (SEQ ID NO: 101) (KLIPNASLIENCTKAELKQAEDKVKASREAKKQVEKALEQLEDKVK)
M1 GAS strain
  survival following intranasal challenge with GAS (FIG. 16): some protective immunity

## GALNNRFQIKGVELKSKEHWSYGLRPG [[Th]-Lys-[B]]
Female mice
  Incidence of pregnancy 13 weeks after 2nd Dose: still infertile and 0/5
  Incidence of pregnancy 2 weeks after 2nd Dose: None of the mice and 0/5
D1 cells
  D1 maturation rate: about 26%

## CCCCCCCCCCCCCCCC(=O)OCC(CSC[C@H](N)C(=O)N[C@@H](CO)C(=O)N[C@@H](CO)C(=O)NCC(=O)N[C@@H](C)C(=O)N[C@@H](CC(C)C)C(=O)N[C@@H](CC(N)=O)C(=O)N[C@@H](CC(N)=O)C(=O)N[C@@H](CCCNC(=N)N)C(=O)N[C@@H](Cc1ccccc1)C(=O)N[C@@H](CCC(N)=O)C(=O)N[C@H](C(=O)N[C@@H](CCCCN)C(=O)NCC(=O)N[C@H](C(=O)N[C@@H](CCC(=O)O)C(=O)N[C@@H](CC(C)C)C(=O)N[C@@H](CCCCN)C(=O)N[C@@H](CO)C(=O)N[C@@H](CCC(=O)O)C(=O)N[C@@H](Cc1c[nH]cn1)C(=O)N[C@@H](Cc1c[nH]c2ccccc12)C(=O)N[C@@H](CO)C(=O)N[C@@H](Cc1ccc(O)cc1)C(=O)NCC(=O)N[C@@H](CC(C)C)C(=O)N[C@@H](CCCNC(=N)N)C(=O)N1CCC[C@H]1C(=O)NCC(=O)O)C(C)C)[C@@H](C)CC)OC(=O)CCCCCCCCCCCCCCC (stereo partly drawn) [Pam2Cys-Ser-Ser-[Th]—[B]]
[1]
  solubility / appearance of solution: opalescent
